Source: patent US8389544B2, “Isoquinolone compounds as subtype-selective agonists for melatonin receptors MT1 and MT2” (The Hong Kong University of Science and Technology, priority 2007, dated 2013)

How the values were obtained:
MT1 receptor [1] = target: T1, MT1 receptor (Homo sapiens, UniProt P48039); test: ERK phosphorylation assay, MT1; type: cell-based; set-up: expressed in transfected cells; settings: HEK293 cells; isoquinolone 1 μM or 2-iodomelatonin 100 nM, 5 min; against unstimulated control cells
Excerpt: (§1) 3. ERK Phosphorylation Assay This assay indicates the ability of the novel compounds to activate MT1 or MT2 receptors by measuring downstream events of the activated receptor, in this case ERK phosphorylation. The amount of phosphorylated ERK1/2 was detected and quantified in western blots. The data in Table 2 is expressed as the fold stimulation against the unstimulated control cells. 6. Detection of ERK phosphorylation […] Stimulation was terminated by aspiration on ice and immediate lysis by 200 μl of 1× protein gel loading buffer. Lysates were denatured by boiling for 5 min and cooled at room temperature until loading. 30 μl of each lysate was separated on 12% SDS-PAGE and transferred to nitrocellulose membrane by electroblotting. Success of transfer was visualized by Ponceau S staining. All subsequent incubations were under gentle agitation (˜100 strokes/min). […] Primary antisera against phosphorylated- or total-ERK1/2 were incubated with the blocked membrane at an appropriate dilution (1:4000-1:2000) in Blotto for overnight at 4° C. The membrane was washed with fresh Blotto for 3 times of 15 min each, then incubated with secondary antiserum (horseradish peroxidase-conjugated anti-rabbit IgG) at the dilution of 1:1000 in 1×TBS for 1 h at room temperature. The membrane was quickly rinsed with excessive 1×TBS for 3 times, and followed by 4 washes of 1×TBS for 10 min. By the end, a premix of luminol-based chemiluminescence substrate solution was prepared (1 ml for every 8 cm^2 of membrane) and overlaid onto the washed membrane to incubate for 1 min. After removing excessive solution, the membrane was covered with saran wrap and an autograph with appropriate exposure was developed on X-ray film in dark room. The image was scanned and the band intensities quantified using ImageJ 1.34. Data was expressed as the percentage response of the vehicle-treated or untreated samples. Experiments were performed at least 3 times and the average responses±SEM were presented.

Parental 293 = test: MTT cytotoxicity assay, parental 293 cells; type: cell-based; settings: percentage of untreated control cells
Procedure: (§2) This assay evaluates the cytotoxic effects of the novel isoquinolone compounds based on the cellular viability under chronic treatments. Viable cells but not dead cells can turn the substrate into a colored product, which yields higher absorbance. […] A low percentage indicates low cytoviability (or high cytotoxicity).
(§3) 5. Cytotoxicity Test Using MTT Assay
(§4) Cells were seeded into clear 96-well plate at an appropriate density in 100 μl growth medium and were allowed to grow overnight. The novel isoquinolone compounds were diluted to desired concentrations using fresh growth medium, and these dilutions were used to replace the growth media in each well. After incubating for 24-96 h, 10 μl of the MTT labeling reagent (Roche) was added to each well and the cells were incubated in a CO2 incubator for 4 h. 100 μl solubilization buffer was then added into each well and incubated overnight for complete solubilization of the purple formazan crystals. […] Each condition was performed in triplicate in every experiment and the results were expressed as % of blank control±SD.

MT2 receptor = target: T2, MT2 receptor (Homo sapiens, UniProt P49286); test: ERK phosphorylation assay, MT2; type: cell-based; set-up: expressed in transfected cells; settings: HEK293 cells; isoquinolone 1 μM or 2-iodomelatonin 100 nM, 5 min; against unstimulated control cells
T2 sequence (P49286 1-362): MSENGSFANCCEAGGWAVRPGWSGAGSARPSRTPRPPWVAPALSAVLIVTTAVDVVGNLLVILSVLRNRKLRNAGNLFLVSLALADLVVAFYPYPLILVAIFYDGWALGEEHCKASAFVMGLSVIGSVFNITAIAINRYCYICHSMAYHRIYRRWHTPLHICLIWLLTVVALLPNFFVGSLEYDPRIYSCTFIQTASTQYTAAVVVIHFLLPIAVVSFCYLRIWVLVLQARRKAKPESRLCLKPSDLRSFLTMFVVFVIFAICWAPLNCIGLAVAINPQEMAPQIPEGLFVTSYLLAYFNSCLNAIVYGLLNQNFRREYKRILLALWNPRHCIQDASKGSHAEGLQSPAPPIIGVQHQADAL
Excerpt: as §1

MT1/293 = test: MTT cytotoxicity assay, MT1/293 cells; type: cell-based; settings: percentage of untreated control cells
Procedure: as §2, §3, §4

MT2/293 = test: MTT cytotoxicity assay, MT2/293 cells; type: cell-based; settings: percentage of untreated control cells
Procedure: as §2, §3, §4

MT1 receptor [2] = target: T1, MT1 receptor; test: Competitive [3H]melatonin binding assay, MT1; set-up: expressed in transfected cells; settings: displacement of 1 nM [3H]melatonin, HEK-293 cells; log value, negative; NSB = No significant binding
Procedure: Competitive ligand binding assays were performed to examine the receptor binding characteristics of the novel isoquinolone compounds. The assay measures the ability of the novel isoquinolone compounds to bind and displace the radiolabelled endogenous ligand, [^3H]melatonin. Increasing concentrations of the novel compounds are added to displace the [^3H]melatonin-bound to MT1 or MT2 receptor-expressing cells.
4. Competitive Binding Assay
The ability of compounds to bind to MT1 and/or MT2 receptors is determined using radioligand binding assays. […] 48 hours following transfection, cells are harvested in binding buffer (50 mM Tris-HCl, 2 mM MgCl2, 1 mM EDTA, pH 7.4). 100,000 cells are incubated with 1 nM [^3H] melatonin (specific activity: 83 Ci/mmol; GE Healthcare) and appropriate concentrations (0.1 nM to 1 μM) of unlabelled ligands in a total volume of 100 μl in 96-well plates (PerkinElmer Life And Analytical Sciences, Inc., Boston, Mass.) for 2 hours at room temperature. Reactions are terminated by rapid filtration through a 96-well cell harvester onto 96-well GF/C filter mats. Filters are washed with 500 μl of ice-cold binding buffer, dried and sealed in a polyethylene bag with 3.5 ml of scintillation fluid and counted for tritium in a Microbeta Jet scintillation counter. […] Data are analyzed by nonlinear least-squares regression using GraphPad Prism 3.02.

T1 sequence (P48039 whole entry): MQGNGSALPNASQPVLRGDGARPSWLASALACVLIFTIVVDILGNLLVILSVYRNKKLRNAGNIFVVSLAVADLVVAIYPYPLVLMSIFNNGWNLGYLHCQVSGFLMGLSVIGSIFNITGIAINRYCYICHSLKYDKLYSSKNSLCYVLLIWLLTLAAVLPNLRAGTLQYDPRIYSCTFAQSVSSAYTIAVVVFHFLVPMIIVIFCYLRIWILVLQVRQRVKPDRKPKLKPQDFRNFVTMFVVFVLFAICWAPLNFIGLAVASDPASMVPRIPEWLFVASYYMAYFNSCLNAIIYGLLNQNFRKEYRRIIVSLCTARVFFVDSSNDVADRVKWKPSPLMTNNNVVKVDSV

| Compound | ERK Phosphorylation MT1 Fold Stim. (MT1 receptor [1]) [Fold] | MTT Assay Parental 293 % Viability ± SEM (Parental 293) [%] | ERK Phosphorylation MT2 Fold Stim. (MT2 receptor) [Fold] | MTT Assay MT1/293 % Viability ± SEM (MT1/293) [%] | MTT Assay MT2/293 % Viability ± SEM (MT2/293) [%] | Binding Assay MT1 logIC50 ± SEM (MT1 receptor [2]) |
| --- | --- | --- | --- | --- | --- | --- |
| COc1cc(COc2cc3c(=O)n(C)ccc3cc2OC)cc(OC)c1 [IS523] | 3.74 | 37.5 ± 0.9 | 2.07 | 51.6 ± 1.1 | 46.2 ± 3.7 | NSB |
| Cn1ccc2cc(OC(=O)c3ccccc3)c(OC(=O)c3ccccc3)cc2c1=O [IS039] | 2.75 | 104.9 ± 4.8 | 1.98 | 108.5 ± 3.2 | 117.6 ± 9.0 | NSB |
| COc1ccc2c(=O)n(C)ccc2c1OCc1ccc(C)cc1 [IS529] | 2.37 | 35.9 ± 0.4 | 1.23 | 54.9 ± 2.5 | 48.5 ± 1.6 | NSB |
| COc1cc(COc2cc3ccn(C)c(=O)c3cc2OC)cc(OC)c1 [IS042] | 4.94 | 60.7 ± 0.4 | 5.59 | 71.6 ± 4.7 | 56.3 ± 1.5 | NSB |
| COc1cccc(COc2cc3ccn(C)c(=O)c3cc2OC)c1 [IS044] | 3.25 | 78.6 ± 5.8 | 3.50 | 112.6 ± 5.8 | 112.5 ± 3.8 | NSB |
| COc1cc2ccn(C)c(=O)c2cc1OCc1ccc(C(C)(C)C)cc1 [IS526] | – | 27.5 ± 18.9 | – | 25.0 ± 4.4 | 24.7 ± 1.6 | NSB |
| COc1cccc(COc2cc3c(=O)n(C)ccc3cc2OC)c1 [IS521] | 3.80 | 66.1 ± 4.9 | 3.01 | 89.8 ± 8.3 | 90.5 ± 11.7 | NSB |
| COc1cccc(COc2c(OC)ccc3c(=O)n(C)ccc23)c1 [IS527] | 2.47 | 36.8 ± 0.0 | 2.21 | 57.1 ± 3.0 | 46.8 ± 0.2 | NSB |
| COc1cc(COc2c(OC)ccc3c(=O)n(C)ccc23)cc(OC)c1 [IS528] | 1.73 | 32.2 ± 2.3 | 1.71 | 50.2 ± 5.7 | 42.4 ± 1.3 | NSB |
